This is an account of results in patent US6855697B1, “Troxerutin with a high content of trihydroxyethylrutoside and process for its preparation” (Negma-Lerads, priority 1998, dated 2005).

Entries after “also recorded” stand apart in the source; their conditions may differ.

For the assay, the system named is red blood cell aggregation. Kind of assay: Ex vivo inhibition of red blood cell aggregation on human blood. In kind it is cell-based. An excerpt: This difference in efficacy was confirmed by the superiority of the enriched troxerutin according to the invention (trihydroxyethylrutoside content in the region of 95%) compared with commercially available troxerutins (content in the region of 84%). The advantage of decreasing the aggregation of red blood cells lies in a reduction in the total blood viscosity, and consequently in better fluidity of the blood. This property is manifested by an increase in the venous return and in the microcirculatory flow rate (increase in the density of the infused capillaries).

On to `C[C@@H]1O[C@@H](OC[C@H]2O[C@@H](Oc3c(-c4ccc(OCCO)c(OCCO)c4)oc4cc(OCCO)cc(OCCO)c4c3=O)[C@H](O)[C@@H](O)[C@@H]2O)[C@H](O)[C@H](O)[C@H]1O` [tetrahydroxyethyl derivative, 5,7,3′,4′-tetrahydroxyethylrutoside, reference compound], for which the “Inhibition of red blood cell aggregation” value is “significantly improved”. Next, `C[C@@H]1O[C@@H](OC[C@H]2O[C@@H](Oc3c(-c4ccc(OCCO)c(OCCO)c4)oc4cc(OCCO)cc(O)c4c3=O)[C@H](O)[C@@H](O)[C@@H]2O)[C@H](O)[C@H](O)[C@H]1O` [trihydroxyethyl derivative, 7,3′,4′-trihydroxyethylrutoside]: “significantly improved; also recorded: more effective than the tetrahydroxyethyl derivative”.
